Results taken from US11358962B2, “2-hetaryl imidazol[1,2-a]pyridine derivatives” (Hoffmann-La Roche Inc., priority 2013, dated 2022).

tested on: native tau aggregates; experiment: TAU radioligand in vitro displacement assay ([3H]T808, autoradiography on human AD brain sections); assay type: binding; conditions: compound 10 nM, radioligand [3H]T808 10 nM
Text: TAU Radioligand-In-Vitro Displacement Assay
This in vitro binding assay assesses the affinity of compounds for native tau aggregates.
AD human brains are purchased from Banner Sun Health Research Institute (Sun City, Ariz., USA). Pathological diagnosis of AD is made according to standard NIA-Reagan Institute criteria based on neuropathological data. The radioligand [^3H]T808 was synthesized in-house ([^3H]-2-[4-(2-Fluoro-ethyl)-piperidin-1-yl]-benzo[4,5]imidazo[1,2-a]pyrimidine, radiochemical purity 99.0%). As a reference cold T808 is used (2-[4-(2-Fluoro-ethyl)-piperidin-1-yl]-benzo[4,5]imidazo[1,2-a]pyrimidine). For the autoradiography FujiFilm Imaging Plates (BAS-IP TR 2025) are exposed to the sections and read with a FujiFilm IP reader (BAS-5000).
Ten μm thick human AD brain sections are generated with a cryostat (Leica CM3050) at −17° C. chamber temperature and −15° C. object temperature. Sections are transferred to Histobond+ microscope slides (Marienfeld Laboratory Glasware). After drying for 3 hours at room temperature the sections are stored at −20° C. The sections are incubated with the radioligand (10 nM) and the respective cold compound (at various concentrations) in 50 mM Tris buffer, pH 7.4 at room temperature for 30 min. After washing 3× 10 min at 4° C. in 50 mM Tris buffer, pH 7.4 and 3 quick dips in H2O dist. at 4° C. the sections are dried at 4° C. for 3 h. The sections are placed in a FujiFilm Cassette (BAS 2025), exposed with an Imaging Plate for five days and afterwards scanned with a resolution of […].
The signal intensity (Dens−PSL/mm2) in the region of interest (ROI) of the autoradiogram is quantified with the software MCID analysis (version 7.0, Imaging Research Inc.). The specific binding (SB) of [^3H]T808 binding in absence or in presence of a compound is calculated by subtracting the non-specific binding signal in the white matter, thus yielding SB[3H]T808 only and SBcompound. The % displacement by the various compounds is calculated as following: % displacement=100−(SBcompound/SB[3H]T808 only)*100. Validation Data
In each experiment cold T808 is used as a positive internal control. Co-incubation of equimolar amounts of hot and cold T808 is expected to reduce specific binding by approximately 50%.

In order of rising “% displacement of [3H]T808 (10 nM) at 10 nM” value:
1. Cc1ccc(-c2cn3ccc(N4CCC(CCF)CC4)cc3n2)cc1 [Example 87, 7-[4-(2-Fluoro-ethyl)-piperidin-1-yl]-2-p-tolyl-imidazo[1,2-a]pyridine]  5%
2. CNc1ccn2cc(-c3sccc3Cl)nc2c1 [Example 112, N-[2-(3-Chloro-thiophen-2-yl)-imidazo[1,2-a]pyridin-7-yl]-methyl-amine]  6%
3. CNc1ccn2cc(-c3nccs3)nc2c1 [Example 104, Methyl-(2-thiazol-2-yl-imidazo[1,2-a]pyridin-7-yl)-amine]  10%
4. CN(C)c1ccn2cc(-c3ccc(COCCF)cc3)nc2c1 [Example 105, 2-[4-(2-Fluoroethoxymethyl)phenyl]-N,N-dimethyl-imidazo[1,2-a]pyridin-7-amine]  10%
5. CNc1ccn2cc(-c3ccc(N(C)Cc4ccccc4)cc3)nc2c1 [Example 110, 2-(4-(benzyl(methyl)amino)phenyl)-N-methylimidazo[1,2-a]pyridin-7-amine]  14%
6. Cc1cccc(-c2cn3ccc(N4CCC(CCF)CC4)cc3n2)c1 [Example 85, 7-[4-(2-Fluoro-ethyl)-piperidin-1-yl]-2-m-tolyl-imidazo[1,2-a]pyridine]  17%
7. CNc1ccn2cc(-c3sccc3Br)nc2c1 [Example 111, N-[2-(3-Bromo-thiophen-2-yl)-imidazo[1,2-a]pyridin-7-yl]-methyl-amine]  17%
8. CC(=O)O.CNc1ccn2cc(-c3ccc(N4CCCC4)cc3)nc2c1 [Example 94, Methyl-[2-(4-pyrrolidin-1-yl-phenyl)-imidazo[1,2-a]pyridin-7-yl]-amine acetic acid adduct]  18%
9. CCN(CC)c1ccc(-c2cn3ccc(NC)cc3n2)cc1 [Example 97, N-[2-(4-Diethylamino-phenyl)-imidazo[1,2-a]pyridin-7-yl]-methyl-amine]  18%
10. CNc1ccn2cc(-c3cc(C)nn3C)nc2c1 [Example 117, N-[2-(2,5-Dimethyl-2H-pyrazol-3-yl)-imidazo[1,2-a]pyridin-7-yl]-methyl-amine]  18%
11. CNc1ccn2cc(-c3nc4ccccc4n3C)nc2c1 [Example 121, Methyl-[2-(1-methyl-1H-benzoimidazol-2-yl)-imidazo[1,2-a]pyridin-7-yl]-amine]  19%
12. CNc1ccn2cc(-c3ccc(N4CCCCC4)cc3)nc2c1 [Example 118, Methyl-[2-(4-piperidin-1-yl-phenyl)-imidazo[1,2-a]pyridin-7-yl]-amine]  20%
13. CNc1ccn2cc(-c3ccccc3O)nc2c1 [Example 120, 2-(7-Methylamino-imidazo[1,2-a]pyridin-2-yl)-phenol]  20%
14. CNc1ccn2cc(-c3cc(OC)cc(OC)c3)nc2c1 [Example 92, 2-(3,5-dimethoxyphenyl)-N-methylimidazo[1,2-a]pyridin-7-amine]  25%
15. FC1CCN(c2ccn3cc(-c4ccc5c(c4)OCCO5)nc3c2)CC1 [Example 84, 2-(2,3-Dihydro-benzo[1, 4]dioxin-6-yl)-7-(4-fluoro-piperidin-1-yl)-imidazo[1,2-a]pyridine]  26%
16. CNc1ccn2cc(-c3ccc(C)c(OC)c3)nc2c1 [Example 108, 2-(3-methoxy-4-methylphenyl)-N-methylimidazo[1,2-a]pyridin-7-amine]  26%
17. CC(=O)O.COc1cccc(-c2cn3ccc(N(C)CCF)cc3n2)c1 [Example 83, N-(2-fluoroethyl)-2-(3-methoxyphenyl)-N-methylimidazo[1,2-a]pyridin-7-amine, acetic acid adduct]  32%
18. CN(C)c1ccn2cc(-c3ccc(CO)cc3)nc2c1 [Example 90, [4-[7-(Dimethylamino)imidazo[1,2-a]pyridin-2-yl]phenyl]methanol acetic acid adduct]  32%
19. CO[C@@H]1CCN(c2ccn3cc(-c4cccc(C)c4)nc3c2)C1 [Example 86, 7-((R)-3-Methoxy-pyrrolidin-1-yl)-2-m-tolyl-imidazo[1,2-a]pyridine]  33%
20. CNc1ccn2cc(-c3ccc(Br)cc3)nc2c1 [Example 114, N-[2-(4-Bromo-phenyl)-imidazo[1,2-a]pyridin-7-yl]-methyl-amine]  33%
21. CO[C@H]1CCN(c2ccn3cc(-c4ccc(C)cc4)nc3c2)C1 [Example 88, 7-((S)-3-Methoxy-pyrrolidin-1-yl)-2-p-tolyl-imidazo[1,2-a]pyridine]  34%
22. CNc1ccn2cc(-c3ccc4c(c3)OCCCO4)nc2c1 [Example 96, N-[2-(3,4-Dihydro-2H-benzo[b][1,4]dioxepin-7-yl)-imidazo[1,2-a]pyridin-7-yl]-methyl-amine]  35%
23. FCCOc1ccc(-c2cn3ccc(N4CCC4)cc3n2)cc1 [Example 106, 7-(Azetidin-1-yl)-2-[4-(2-fluoroethoxy)phenyl]imidazo[1,2-a]pyridine]  36%
24. COCc1ccc(-c2cn3ccc(N(C)C)cc3n2)cc1 [Example 99, 2-[4-(Methoxymethyl)phenyl]-N,N-dimethyl-imidazo[1,2-a]pyridin-7-amine acetic acid adduct]  37%
25. CCc1ccc(-c2cn3ccc(NC)cc3n2)cc1 [Example 98, N-[2-(4-Ethyl-phenyl)-imidazo[1,2-a]pyridin-7-yl]-methyl-amine]  38%
26. COc1cccc(-c2cn3ccc(N4CCC4)cc3n2)c1 [Example 91, 7-(azetidin-1-yl)-2-(3-methoxyphenyl)imidazo[1,2-a]pyridine]  39%
27. CC(=O)O.CCOc1ccc(-c2cn3ccc(NC)cc3n2)cc1 [Example 93, N-[2-(4-Ethoxy-phenyl)-imidazo[1,2-a]pyridin-7-yl]-methyl-amine acetic acid adduct]  39%
28. CNc1ccn2cc(-c3ccc(OCCF)cc3)nc2c1 [Example 109, 2-[4-(2-Fluoroethoxy)phenyl]-N-methylimidazo[1,2-a]pyridin-7-amine]  40%
29. CNc1ccn2cc(-c3ccc4c(c3)NC(=O)CO4)nc2c1 [Example 119, 6-(7-Methylamino-imidazo[1,2-a]pyridin-2-yl)-4H-benzo[1,4]oxazin-3-one]  46%
30. CNc1ccn2cc(-c3ccc(N4CCOCC4)cc3)nc2c1 [Example 103, Methyl-[2-(4-morpholin-4-yl-phenyl)-imidazo[1,2-a]pyridin-7-yl]-amine]  47%
31. CNc1ccn2cc(-c3cc4ccccc4o3)nc2c1 [Example 116, N-[2-(Benzofuran-2-yl)-imidazo[1,2-a]pyridin-7-yl]-methyl-amine]  47%
32. FCOc1cccc(-c2cn3ccc(N4CCC4)cc3n2)c1 [Example 107, 7-(Azetidin-1-yl)-2-[3-(fluoromethoxy)phenyl]imidazo[1,2-a]pyridine]  48%
33. CNc1ccn2cc(-c3ccc(OC(F)F)cc3)nc2c1 [Example 113, N-[2-(4-Difluoromethoxy-phenyl)-imidazo[1,2-a]pyridin-7-yl]-methyl-amine]  48%
34. CNc1ccn2cc(-c3ccco3)nc2c1 [Example 101, N-(2-Furan-2-yl-imidazo[1,2-a]pyridin-7-yl)-methyl-amine]  50%
35. CNc1ccn2cc(-c3cccs3)nc2c1 [Example 102, N-(2-Thiophen-2-yl-imidazo[1,2-a]pyridin-7-yl)-methyl-amine]  50%
36. CNc1ccn2cc(-c3ccc(CO)cc3)nc2c1 [Example 89, [4-[7-(Methylamino)imidazo[1,2-a]pyridin-2-yl]phenyl]methanol acetic acid adduct]  54%
37. CNc1ccn2cc(-c3ccc(OC)c(F)c3)nc2c1 [Example 95, N-[2-(3-Fluoro-4-methoxy-phenyl)-imidazo[1,2-a]pyridin-7-yl]-methyl-amine]  55%
38. CNc1ccn2cc(-c3ccc(C)o3)nc2c1 [Example 115, Methyl-[2-(5-methyl-furan-2-yl)-imidazo[1,2-a]pyridin-7-yl]-amine]  58%
39. CNc1ccn2cc(-c3ccsc3)nc2c1 [Example 100, Methyl-(2-thiophen-3-yl-imidazo[1,2-a]pyridin-7-yl)-amine]  59%
